Data taken from patent US8173634B2, “Polymorphic form of 1-(4-{1-[(E)-4-cyclohexyl-3-trifluoromethyl-benzyloxyimino]-ethyl}-2-ethyl-benzyl)-azetidine-3-carboxylic” (Novartis AG, priority 2008, dated 2012).
≈ marks a conversion by molar mass, not a printed value.

Legend:
[1] = Solubility of Crystalline Form A in test solvents (excess solid equilibrated, filtrate by HPLC); type: physicochemical; conditions: for pH of final solution: 25°C solubility test; for solubility at 8 days: 25°C, equilibrated 8 days; for solubility at 4 days: 37°C, equilibrated 4 days
Method: (§1) The solubility and dissolution rate of the Crystalline form A of the free base of compound I prepared as described in Example 1 were tested in various solvents.
(§2) For solubility measurements, excess Form A of the free base of compound I was added to the test solvents and equilibrated for 8 days at 25° C.±0.5° C. and 4 days at 37±0.5° C. Slurries were filtered and the filtrate saved for HPLC solubility determinations. Dissolution rate measurements were carried out in 0.5 cm^2 Vankel punch and die assemblies and a pellet pressure of 2000 pounds. The dissolution was measured using fiber optics dissolution system (C technologies Inc.) and a Cary UV/VIS spectrophotometer, with a stirring rate of 200 rpm. The solution medium was held at 37±0.5° C. and the concentration measurements were made at 260 nm.

[2] = Intrinsic dissolution rate (Vankel punch and die, fiber optics UV at 260 nm, 200 rpm, 37°C); type: physicochemical; conditions: for Intrinsic dissolution rate: 37°C, 200 rpm
Method: as §1, §2

CCc1cc(/C(C)=N/OCc2ccc(C3CCCCC3)c(C(F)(F)F)c2)ccc1CN1CC(C(=O)O)C1 [Compound I, 1-(4-{1-[(E)-4-cyclohexyl-3-trifluoromethyl-benzyloxyimino]-ethyl}-2-ethyl-benzyl)-azetidine-3-carboxylic acid]
pH of final solution ([1]; 0.01N HCL): 2.24 | pH of final solution ([1]; 0.01N HCl + SDS (0.1%)): 2.33 | pH of final solution ([1]; 0.1N HCl + SDS (0.1%)): 1.48 | pH of final solution ([1]; 0.1N HCl): 1.49 | pH of final solution ([1]; Phosphate buffer, pH 6.8): 7.02 | pH of final solution ([1]; Water + SDS (0.1%)): 7.02 | pH of final solution ([1]; Water): 6.28 | solubility at 8 days ([1]; aqueous buffer, thermodynamic from solid, Phosphate buffer, pH 6.8): 0.47 µg/mL (≈ 0.91 µM) | solubility at 8 days ([1]; aqueous with cosolvent or surfactant or cyclodextrin, thermodynamic from solid, Acetonitrile/water (1:1 v/v)): > 40000 µg/mL | solubility at 8 days ([1]; aqueous with cosolvent or surfactant or cyclodextrin, thermodynamic from solid, Ethanol/water (1:1 v/v)): 13900 µg/mL (≈ 26900 µM) | solubility at 8 days ([1]; organic solvent or mixture, thermodynamic from solid, Ethanol): 47600 µg/mL (≈ 92100 µM) | solubility at 8 days ([1]; organic solvent or mixture, thermodynamic from solid, acetonitrile): 610 µg/mL (≈ 1180 µM) | solubility at 8 days ([1]; pH 1.48, aqueous with cosolvent or surfactant or cyclodextrin, thermodynamic from solid, 0.1N HCl + SDS (0.1%)): 22 µg/mL | solubility at 8 days ([1]; pH 1.49, simulated gastric fluid, thermodynamic from solid, 0.1N HCl): 1.5 µg/mL (≈ 2.9 µM) | solubility at 8 days ([1]; pH 2.24, simulated gastric fluid, thermodynamic from solid, 0.01N HCL): 0.6 µg/mL (≈ 1.16 µM) | solubility at 8 days ([1]; pH 2.33, aqueous with cosolvent or surfactant or cyclodextrin, thermodynamic from solid, 0.01N HCl + SDS (0.1%)): 994 µg/mL | solubility at 8 days ([1]; pH 6.28, thermodynamic from solid, Water): 33 µg/mL (≈ 63.9 µM) | solubility at 8 days ([1]; pH 7.02, aqueous with cosolvent or surfactant or cyclodextrin, thermodynamic from solid, Water + SDS (0.1%)): 1190 µg/mL | solubility at 4 days ([1]; simulated gastric fluid, thermodynamic from solid, 0.01N HCl): < 0.5 µg/mL | solubility at 4 days ([1]; simulated gastric fluid, thermodynamic from solid, 0.1N HCl): 1.9 µg/mL (≈ 3.68 µM) | Solubility (overall assessment) ([1]; summary of Tables 2-3): good solubility | solubility at 4 days ([1]; thermodynamic from solid, water): 106 µg/mL (≈ 205 µM) | Intrinsic dissolution rate ([2]; 0.01N HCl + SDS (0.1%)): 0.0245 mg min^−1 cm^−2 | Intrinsic dissolution rate ([2]; 0.1N HCl + SDS (0.1%)): 0.0368 mg min^−1 cm^−2 | Intrinsic dissolution rate ([2]; Water + SDS (0.1%)): 0.0098 mg min^−1 cm^−2 | Dissolution (overall assessment) ([2]; summary of Table 4): relatively quick dissolution
